Counter-ions that a name gives are not always drawn. Like-named read-outs stand apart in the source and are kept apart here.
Experiments:
[1] = tested on: acid secretion in pylorus-ligated rats; assay: Anti-secretory effect (histamine-stimulated gastric acid secretion) in pylorus-ligated rat; format: in vivo, male wistar rats; conditions: for ED50: read-out: ED 50 (acid secretion inhibition); for acid secretion inhibition: 5 rats
[2] = tested on: acid secretion in pylorus-ligated rats; assay: as above; format: in vivo, male wistar rats; conditions: Rattus norvegicus, sc, 3 h; 2 mg/kg s.c., 30 min before histamine 3 mg/kg s.c.; n=5; * significant at 5%, ** at 1% vs control; read-out: inhibitory effect of acid secretion (%) at 2 mg/kg s.c.
Method: (A) Anti-secretory Effect in Pylorus-ligated Rat
After 24 hr fasting, male wistar rats weighing about 160 g were anesthetized by intraperitoreal injection of urethans 1.2 g/kg. Then, after ligating the pylorus and the esophagus, the proventriculus was incised and a double polyethylene cannula was inserted. The gastric wall was washed out with 5 ml of physiological saline every 30 minutes and the amount of acid contained in the saline after washing was measured by titration. After measuring the basal acid secretion of the pylorus ligated rats three times, the compounds of the invention, 2 mg/kg, were administered subcutaneously and, 30 minutes thereafter, histamine 3 mg/kg, was administered also subcutaneously. Then, the amounts of acid secretion were measured for 3 hours. […] Then, an inhibition rate was calculated in accordance with the following formula, in relation to the increment values measured for the control group. [formula]
One group included five examples.

[3] = biological target: T1, histamine H2 receptor in atria (Cavia porcellus, UniProt P47747); assay: Histamine H2 receptor inhibition effect by isolated guinea pig right atrium preparation (negative chronotropic effect); format: cell-based, Male Hartley Guinea Pig; conditions: 5×10^-6 mol sample 3 minutes prior to histamine, mean of five; for Kb: read-out: inhibitory effect of histamine H2 receptor in atria (pA2 value) (converted)
T1 construct: right atrium was isolated; from tissue; host or cells: isolated right atrium of male Hartley guinea pig
Method: (B) Measurement of Histamine H2 Receptor Inhibition Effect by Isolated Guinea Pig Right Atrium Preparation
Male Hartley Guinea Pig weighing around 400 g was sacrified by decapitation, and right atrium was isolated. The right atrium was suspended in an organ bath (50 ml) containing modified Ringer solution. Under application of a tensile load of 1 g, the heart rate was recorded by means of a polygraph. Histamine was applied cumulatively from 1×10^-7 mol to 3×10^-4 mol and a cumulative dosage response curve was drawn. Then, 5×10^-6 mol of the sample was administered 3 minutes prios to histamine application. The negative logarithmic value (pA2) of the specimen molarity required for shifting the curve to the right to double concentration was calculated.

[4] = Acute oral toxicity test in mice (LD50, Litchfield-Wilcoxon); conditions: mouse, in vivo
Method: Male dd-mice were divided into groups of 5 and fasted for 8 hours. The test compounds were administered orally to the mice weighing from 19.7 g. to 22.0 g. The mice were observed survival or death as well as the general symptoms over 7 days after the administration of the compounds. The value of LD50 for each compound was estimated from the mortality observed on the basis of the Litchfield-Wilcoxon method.
In a similar test, the test compound of example 27, 35, 66, 84, 97, 104, 118, 125 or 129 was administered orally to the mice at a dose of 1500 mg/kg.

[5] = similar test, oral dose of 1500 mg/kg

T1 sequence (P47747 whole entry): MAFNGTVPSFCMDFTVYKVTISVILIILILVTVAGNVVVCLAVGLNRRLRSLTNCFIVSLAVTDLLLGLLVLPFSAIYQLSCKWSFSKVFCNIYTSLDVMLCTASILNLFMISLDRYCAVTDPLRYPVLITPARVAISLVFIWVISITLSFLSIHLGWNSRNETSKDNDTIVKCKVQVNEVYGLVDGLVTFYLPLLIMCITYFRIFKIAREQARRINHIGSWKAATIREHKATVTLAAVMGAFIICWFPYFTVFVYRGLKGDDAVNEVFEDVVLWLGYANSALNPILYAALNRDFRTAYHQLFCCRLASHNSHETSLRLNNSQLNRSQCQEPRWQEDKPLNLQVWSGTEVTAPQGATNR

| SMILES | Kb [3] [nM] | inhibition in vivo at 2 mg/kg [2] [%] | LD50 at 168 h [4, 5] [mg/kg] | also measured |
| --- | --- | --- | --- | --- |
| CN/C(=N/CCSCc1nc[nH]c1C)NC#N [Cimetidine, cimetidine, reference compound] |  |  |  | inhibition in vivo at 2 mg/kg ([1]; Rattus norvegicus, sc, 3 h, read-out: inhibitory effect of acid secretion (%) at 2 mg/kg s.c.): 63%; ED50 ([1]; Rattus norvegicus, sc): 2.77 µmol/kg; acid secretion inhibition ([1]; Table 2, dosage 2.0 μmol/kg): 37%; acid secretion inhibition ([1]; Table 2, dosage 5.9 μmol/kg): 75%; acid secretion inhibition ([1]; Table 2, dosage 17.8 μmol/kg): 83% |
| CNC(=C[N+](=O)[O-])NCCCOc1ccc2[nH]c(CN(C)C)nc2c1 [Example 27, 1-nitro-2-methylamino-2-[3-<5-(2-dimethylaminomethylbenzimidazolyl)oxy>propylamino]ethylene] | 16200 | 73 | > 1500 |  |
| CNC(=NC#N)NCCSCc1ccc2[nH]c(CN(C)C)nc2c1 [Example 35, N-cyano-N'-methyl-N"-[2-<5-(2-dimethylaminomethylbenzimidazolyl)methylthio>ethyl]guanidine] | 646 | 64 | > 1500 |  |
| CN(C)Cc1nc2cc(OCCCNc3ncc(Cc4cccnc4)c(=O)[nH]3)ccc2[nH]1 [Example 66, 2-[3-<5-(2-dimethylaminomethylbenzimidazolyl)oxy>propylamino]-5-(3-pyridylmethyl)-4-pyrimidone] | 1950 | 100 | > 1500 |  |
| CN(C)Cc1cccc(Cc2cnc(NCCCOc3ccc4[nH]c(CN(C)C)nc4c3)[nH]c2=O)c1 [Example 70, 2-[3-<5-(2-dimethylaminomethylbenzimidazolyl)oxy>propylamino]-5-(3-dimethylaminomethylbenzyl)-4-pyrimidone] | 2450 | 102 |  | LD50 at 168 h ([4]; oral, groups of 5, 7 days observation): 2800 mg/kg; effective ratio ([1]; ED50 relative to cimetidine = 1.0): 25.2; ED50 ([1]; Rattus norvegicus, sc, pylorus-ligated rats, 95% confidence limit printed on following lines): 0.11 µmol/kg; acid secretion inhibition ([1]; Table 2, dosage 0.067 μmol/kg): 35%; acid secretion inhibition ([1]; Table 2, dosage 0.204 μmol/kg): 71%; acid secretion inhibition ([1]; Table 2, dosage 0.613 μmol/kg): 93% |
| O=c1[nH]c(NCCCOc2ccc3[nH]c(CN4CCCC4)nc3c2)nnc1Cc1cccnc1 [Example 84] | 2190 | 75 | > 1500 |  |
| O=c1[nH]c(NCCCOc2ccc3[nH]c(CN4CCCCC4)nc3c2)nnc1Cc1cccnc1 [Example 85, 3-{3-[5-<2-(1-piperidinomethyl)benzimidazolyl>oxy]propylamino}-6-(3-pyridylmethyl)-1,2,4-triazine-5-one] | 1950 | 46 |  |  |
| CN(C)Cc1nc2cc(OCCCNc3nc(N)nn3C)ccc2[nH]1 [Example 91, 1-methyl-5-[3-<5-(2-dimethylaminomethylbenzimidazolyl)oxy>propyl]-1H-1,2,4-triazole-3,5-diamine] | 6460 | 81 |  |  |
| CN(C)Cc1nc2cc(OCCCCNc3nc(N)nn3C)ccc2[nH]1 [Example 92, 1-methyl-5-[4-<5-(2-dimethylaminomethylbenzimidazolyl)oxy>butyl]-1H-1,2,4-triazole-3,5-diamine] | 5500 | 92 |  |  |
| Nc1n[s+]([O-])nc1NCCCOc1ccc2[nH]c(CN3CCCCC3)nc2c1 (stereo not shown) [Example 101] | 2950 | 97 |  |  |
| CN(C)Cc1nc2cc(CSCCNC3=NS(=O)(=O)N=C3N)ccc2[nH]1 [Example 104, 3-[2-<5-(2-dimethylaminomethylbenzimidazolyl)methylthio>ethyl]amino-4-amino-1,2,5-thiadiazole-1.1-dioxide] | 1950 | 96 | > 1500 |  |
| Nc1n[s+]([O-])nc1NCCSCc1ccc2[nH]c(CN3CCCCC3)nc2c1 (stereo not shown) [Example 105, 3-{2-[5-<2-(1-piperidinomethyl)benzimidazolyl>methylthio]ethyl}amino-4-amino-1,2,5-thiadiazole-1-oxide] |  | 92 |  | inhibitory effect of histamine H2 receptor in atria (pA2 value) [3]: 6.08 |
| NC(=O)N=C(N)CCCOc1ccc2[nH]c(CN3CCCCC3)nc2c1 [Example 118, N-carbamoyl-4-[5-<2-(1-piperidinomethyl)benzimidazolyl>oxy]butyroamidine.3hydrochloride] |  |  | > 1500 |  |
| CN(C)Cc1nc2cc(CSCCC(N)=NC#N)ccc2[nH]1 [Example 125, N-cyano-3-[5-(2-dimethylaminomethylbenzimidazolyl)methylthio]propionamidine] |  |  | > 1500 |  |
| CN(C)Cc1nc2cc(CSCCC(N)=NC(N)=O)ccc2[nH]1 [Example 129, N-carbamoyl-3-[5-(2-dimethylaminomethylbenzimidazolyl)methylthio]propionamidine] | 759 | 72 | > 1500 |  |

Second part, led by results:

| Kb [3] [nM] | SMILES | inhibition in vivo at 2 mg/kg [2] [%] | LD50 at 168 h [4, 5] [mg/kg] | also measured |
| --- | --- | --- | --- | --- |
| 603 | CN(C)Cc1nc2cc(CSCCNc3nnc(Cc4cccnc4)c(=O)[nH]3)ccc2[nH]1 [Example 87, 3-[2-<5-(2-dimethylaminomethylbenzimidazolyl)methylthio>ethylamino]-6-(3-pyridylmethyl)-1,2,4-triazine-5-one] | 84 |  |  |
| 2190 | CCNc1n[s+]([O-])nc1NCCCOc1ccc2[nH]c(CN(C)C)nc2c1 (stereo not shown) [Example 102, 3-[3-<5-(2-dimethylaminomethylbensimidazolyl)oxi>propyl]amino-4-ethylamino-1,2,5-thiadiazol-1-oxide] | 68 |  |  |
| 537 | CNc1n[s+]([O-])nc1NCCSCc1ccc2[nH]c(CN(C)C)nc2c1 (stereo not shown) [Example 106, 3-[2-<5-(2-dimethylaminomethylbenzimidazolyl)methylthio>ethyl]amino-4-methylamino-1,2,5-thiadiazole-1-oxide] | 89 |  |  |
| 1450 | CCNc1n[s+]([O-])nc1NCCSCc1ccc2[nH]c(CN(C)C)nc2c1 (stereo not shown) [Example 108, 3-[2-<5-(2-dimethylaminomethylbenzimidazolyl)methylthio>ethyl]amino-4-ethylamino-1,2,5-thiadiazole-1-oxide] | 77 |  |  |
| 759 | C#CCNc1n[s+]([O-])nc1NCCSCc1ccc2[nH]c(CN(C)C)nc2c1 (stereo not shown) [Example 109, 3-[2-<5-(2-dimethylaminomethylbenzimidazolyl)methylthio>ethyl]amino-4-(2-propinylamino)-1,2,5-thiadiazole-1-oxide] | 74 |  |  |
| 1580 | C#CCNC1=NS(=O)(=O)N=C1NCCSCc1ccc2[nH]c(CN(C)C)nc2c1 [Example 110, 3-[2-<5-(2-dimethylaminomethylbenzimidazolyl)methylthio>ethyl]amino-4-(2-propynylamino)-1,2,5-thiadoazole-1,1-dioxide] | 68 |  |  |
| 8510 | CCNc1n[s+]([O-])nc1NCCCSc1ccc2[nH]c(NC(=N)N)nc2c1 (stereo not shown) [Example 113, 3-N-[3-<5-(2-guanidinobenzimidazolyl)thio>propyl]amino-4-ethylamino-1,2,5-thiadiazole-1-oxide] | 63 |  |  |
| 562 | CN(C)Cc1nc2cc(CSCCC(N)=NS(N)(=O)=O)ccc2[nH]1 [Example 121, N-sulfamoyl-3-[5-(2-dimethylaminomethylbenzimidazolyl)methylthio]propionamidine] | 76 |  |  |
| 2450 | CN(C)Cc1nc2cc(CSCCCC(N)=NS(N)(=O)=O)ccc2[nH]1 [Example 122, N-sulfamoyl-4-[5-(2-dimethylaminomethylbenzimidazolyl)methylthio]butyroamidine] | 32 |  |  |

— US4550118A, “Heterocyclic compounds” (Ikeda Mohando Co., Ltd., priority 1982, dated 1985)
